Source: US9796696B2, “Substituted arylcyclopentenes as therapeutic agents” (Allergan, Inc., priority 2007, dated 2017)

What was measured:
[1] = In vivo testing, Max. ΔIOP, Max. hyperemia
Text: (§1) U.S. Pat. No. 7,091,231 describes the methods used for these in vivo tests.

[2] = In vivo testing, Max. ΔIOP
Text: as §1

[3] = target: T1, EP4 (Homo sapiens, UniProt P35408); experiment: EP4 Ki (in vitro testing); assay type: binding; settings: read-out: EP4 Ki EC50
Text: (§2) U.S. patent application Ser. No. 11/553,143, filed on Oct. 26, 2006, describes the methods used to obtain the in vitro data in the tables below.

[4] = target: T2, EP2 (Homo sapiens, UniProt P43116); experiment: EP2 cAMP EC50 (in vitro testing); assay type: cell-based
T2 sequence (P43116 whole entry): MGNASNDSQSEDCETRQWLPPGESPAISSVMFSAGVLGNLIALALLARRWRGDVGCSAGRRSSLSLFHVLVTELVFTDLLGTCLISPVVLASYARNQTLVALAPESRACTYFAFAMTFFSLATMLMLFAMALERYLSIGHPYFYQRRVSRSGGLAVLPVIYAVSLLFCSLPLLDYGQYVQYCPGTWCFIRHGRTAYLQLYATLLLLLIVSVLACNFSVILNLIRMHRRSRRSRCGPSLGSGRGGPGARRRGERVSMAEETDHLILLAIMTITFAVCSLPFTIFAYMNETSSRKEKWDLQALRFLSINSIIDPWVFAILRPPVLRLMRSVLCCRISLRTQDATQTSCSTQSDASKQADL
Text: as §2

[5] = target: T2, EP2; experiment: EP2 Ca2+ EC50 (in vitro testing); assay type: cell-based
Text: as §2

[6] = target: T1, EP4; experiment: EP4 Ca2+ EC50 (in vitro testing); assay type: cell-based
Text: as §2

[7] = target: T2, EP2; experiment: EP2 Ki (in vitro testing); assay type: binding
Text: as §2

[8] = target: T3, EP3 (Homo sapiens, UniProt P43115); experiment: Other receptors Ca2+ EC50: EP3; assay type: cell-based; settings: NA not defined in the patent
T3 sequence (P43115 1-390): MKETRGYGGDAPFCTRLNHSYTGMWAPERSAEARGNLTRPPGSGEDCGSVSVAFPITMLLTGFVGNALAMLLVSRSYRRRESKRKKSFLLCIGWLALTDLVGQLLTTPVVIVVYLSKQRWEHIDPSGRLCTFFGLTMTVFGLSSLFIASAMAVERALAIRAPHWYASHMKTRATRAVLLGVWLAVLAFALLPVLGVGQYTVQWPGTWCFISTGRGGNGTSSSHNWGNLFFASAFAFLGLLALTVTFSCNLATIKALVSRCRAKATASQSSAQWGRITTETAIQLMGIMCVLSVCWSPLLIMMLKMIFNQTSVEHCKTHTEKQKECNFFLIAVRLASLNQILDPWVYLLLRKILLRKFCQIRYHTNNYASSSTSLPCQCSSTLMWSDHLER
Text: as §2

[9] = target: T4, DP (Homo sapiens, UniProt Q13258); experiment: Other receptors Ca2+ EC50: DP; assay type: cell-based; settings: NA not defined in the patent
T4 sequence (Q13258 1-359): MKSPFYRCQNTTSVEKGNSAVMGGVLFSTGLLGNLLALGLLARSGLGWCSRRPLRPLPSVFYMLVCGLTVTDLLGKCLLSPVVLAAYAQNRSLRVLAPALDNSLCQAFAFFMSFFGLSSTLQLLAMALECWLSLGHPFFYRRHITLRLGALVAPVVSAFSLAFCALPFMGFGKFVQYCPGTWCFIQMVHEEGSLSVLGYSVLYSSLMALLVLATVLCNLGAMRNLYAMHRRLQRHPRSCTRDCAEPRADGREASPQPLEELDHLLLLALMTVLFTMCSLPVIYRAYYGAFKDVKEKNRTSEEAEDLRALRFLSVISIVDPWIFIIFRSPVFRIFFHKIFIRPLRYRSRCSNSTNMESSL
Text: as §2

T1 sequence (P35408 whole entry): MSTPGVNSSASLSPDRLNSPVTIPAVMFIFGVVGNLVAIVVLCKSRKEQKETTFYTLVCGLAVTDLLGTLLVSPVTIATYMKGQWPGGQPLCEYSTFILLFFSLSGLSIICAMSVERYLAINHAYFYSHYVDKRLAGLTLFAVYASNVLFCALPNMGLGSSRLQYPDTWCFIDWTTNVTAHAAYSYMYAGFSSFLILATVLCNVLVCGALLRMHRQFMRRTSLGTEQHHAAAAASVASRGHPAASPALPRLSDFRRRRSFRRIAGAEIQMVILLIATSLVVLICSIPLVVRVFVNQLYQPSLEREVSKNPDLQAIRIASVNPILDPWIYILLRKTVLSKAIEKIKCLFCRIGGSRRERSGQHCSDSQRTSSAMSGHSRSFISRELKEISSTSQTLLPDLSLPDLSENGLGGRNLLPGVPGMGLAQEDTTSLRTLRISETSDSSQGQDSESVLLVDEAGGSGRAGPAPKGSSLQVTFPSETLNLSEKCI

Ki [3] | EC50 [4] | EC50 [5] | EC50 [6] | Ki [7] | EC50 [8] | Compound | other results
– | – | – | – | – | – | CCCCCC(O)c1ccc(C2=C(C#N)CC[C@@H]2CCCc2ccc(C(=O)O)s2)cc1 (single isomer, unassigned) [Compound 4] | Max. hyperemia ([1]; Conc. 0.003 g/100 mL): 1.4; Max. ΔIOP (%) ([1]; Conc. 0.003 g/100 mL): 35%; Max. ΔIOP (%) ([2]; Conc. 0.003 g/100 mL): 39%
966 nM | 0.4 nM | 403 nM | > 10000 nM | 1.5 nM | 2340 nM | CCCCCC(O)c1ccc(C2=C(Br)CC[C@@H]2CCCc2ccc(C(=O)O)s2)cc1 (stereo partly drawn) [drawing 79] | –
914 nM | 0.2 nM | 83 nM | > 10000 nM | 5 nM | – | CCCCC[C@@H](O)c1ccc(C2=C(Cl)CC[C@@H]2CCCc2ccc(C(=O)O)s2)cc1 | –
1180 nM | 0.9 nM | 19 nM | > 10000 nM | 5 nM | – | CCCCCC(O)c1ccc(C2=CCC[C@@H]2CCCc2ccc(C(=O)O)s2)cc1 (stereo partly drawn) | –
– | – | – | – | – | – | CCCCCC(O)c1ccc(C2=C(Cl)CC[C@@H]2CCCc2ccc(C(=O)OC(C)C)s2)cc1 (stereo partly drawn) [Compound 2] | Max. hyperemia ([1]; Conc. 0.1 g/100 mL): 1.7; Max. ΔIOP (%) ([1]; Conc. 0.1 g/100 mL): 21%; Max. ΔIOP (%) ([2]; 0.1% dose): 26%
– | – | – | – | – | – | CCCCC[C@H](O)c1ccc(C2=CCC[C@@H]2CCCc2ccc(C(=O)O)s2)cc1 [Compound 6] | Max. hyperemia ([1]; Conc. 0.01 g/100 mL): 2.0; Max. ΔIOP (%) ([1]; Conc. 0.01 g/100 mL): 32%; Max. ΔIOP (%) ([2]; Conc. 0.01 g/100 mL): 31%
3680 nM | 0.6 nM | 355 nM | > 10000 nM | 16 nM | 1490 nM | CCCCC[C@H](O)c1ccc(C2=C(Cl)CC[C@@H]2CCCc2ccc(C(=O)O)s2)cc1 | –
– | – | – | – | – | – | CCCCCC(O)c1ccc(C2=C(C#N)CC[C@@H]2CCCc2ccc(C(=O)OCCO)s2)cc1 (stereo partly drawn) [Compound 5] | Max. hyperemia ([1]; Conc. 0.01 g/100 mL): 1.9; Max. ΔIOP (%) ([1]; Conc. 0.01 g/100 mL): 41%; Max. ΔIOP (%) ([2]; Conc. 0.01 g/100 mL): 53%
175 nM | 154 nM | – | – | 1370 nM | 8560 nM | CCCCCC(O)c1ccc(C2=C(C#N)CC[C@@H]2CCCc2ccc(C(=O)O)s2)cc1 (stereo partly drawn) | –
785 nM | 54 nM | 442 nM | > 10000 nM | 313 nM | 9640 nM | CCCCCC(O)c1ccc(C2=C(O)C(=O)C[C@@H]2C/C=C\CCCC(=O)O)cc1 (stereo partly drawn) [drawing 82] | –
> 10000 nM | 0.2 nM | 27 nM | 2960 nM | 2.4 nM | 1820 nM | CCCCCC(O)c1ccc(C2=C(F)CC[C@@H]2CCCc2ccc(C(=O)O)s2)cc1 (stereo partly drawn) | –
> 10000 nM | 4 nM | 193 nM | 955 nM | 16 nM | 7340 nM | CCCCCC(O)c1ccc(C2=C(C)CC[C@@H]2CCCc2ccc(C(=O)O)s2)cc1 (stereo partly drawn) [drawing 88] | –
16000 nM | 0.4 nM | 65 nM | 3350 nM | 3 nM | 202 nM | CCCCCC(O)c1ccc(C2=C(C#N)CC[C@@H]2CCCc2ccc(C(=O)O)s2)cc1 (single isomer, unassigned) [drawing 85] | –
1540 nM | 48 nM | 119 nM | > 10000 nM | 53 nM | 6980 nM | CCCCCC(O)c1ccc(C2=C(CO)CC[C@@H]2CCCc2ccc(C(=O)O)s2)cc1 (stereo partly drawn) [drawing 81] | –
– | – | – | – | – | – | CCCCCC(O)c1ccc(C2=C(Cl)CC[C@@H]2CCCc2ccc(C(=O)O)s2)cc1 (stereo partly drawn) [Compound 1] | Max. hyperemia ([1]; Conc. 0.01 g/100 mL): 1.7; Max. ΔIOP (%) ([1]; Conc. 0.01 g/100 mL): 39%; Max. ΔIOP (%) ([2]; 0.1% dose): 62 (0.1% dose)
– | – | – | – | – | – | CCCCCC(O)c1ccc(C2=C(C#N)CC[C@@H]2CCCc2ccc(C(=O)O)s2)cc1 (single isomer, unassigned) [Compound 3] | Max. hyperemia ([1]; Conc. 0.003 g/100 mL): 1.3; Max. ΔIOP (%) ([1]; Conc. 0.003 g/100 mL): 35%; Max. ΔIOP (%) ([2]; Conc. 0.003 g/100 mL): 46%
522 nM | 0.7 nM | 847 nM | > 10000 nM | 5 nM | 3220 nM | CCCCCC(O)c1ccc(C2C(Br)=CC[C@@H]2CCCc2ccc(C(=O)O)s2)cc1 (stereo partly drawn) [drawing 83] | –
> 10000 nM | 0.45 nM | 74 nM | 2800 nM | 5 nM | 3540 nM | CCCCCC(O)c1ccc(C2=C(C#N)CC[C@@H]2CCCc2ccc(C(=O)O)s2)cc1 (single isomer, unassigned) [drawing 84] | –
– | 1 nM | 27 nM | – | 18 nM | 3090 nM | CCCCC[C@H](O)c1ccc(C2=CCC[C@@H]2CCCc2ccc(C(=O)O)s2)cc1 [drawing 86] | EC50 [9]: 7740 nM
– | – | – | – | – | – | CCCCC[C@@H](O)c1ccc(C2=CCC[C@@H]2CCCc2ccc(C(=O)O)s2)cc1 [Compound 7] | Max. hyperemia ([1]; Conc. 0.01 g/100 mL): 1.8; Max. ΔIOP (%) ([1]; Conc. 0.01 g/100 mL): 37%
16300 nM | 0.8 nM | 36 nM | – | 10 nM | 5890 nM | CCCCC[C@@H](O)c1ccc(C2=CCC[C@@H]2CCCc2ccc(C(=O)O)s2)cc1 [drawing 87] | EC50 [9]: 9920 nM
